Assay results reported in EP4111863A1, “PHOSPHORUS USE EFFICIENCY ENHANCERS AS PLANT GROWTH PROMOTORS” (EuroChem Antwerpen, priority 2021, dated 2023).

The compounds below were run on SPX1 (assay: Chemical activity assessment: SPX1 phosphate starvation biomarker, pSPX1::GUS reporter line, GUS stained area). Conditions: Table 3; 50 µM compound, low phosphate modMS liquid medium, 7 days after germination; low phosphate control average of the same plate.
Assay type: in vivo, Arabidopsis thaliana
Experimental: All Arabidopsis plant experiments were performed using the Arabidopsis thaliana Columbia-0 background. The Arabidopsis pSPX1::GUS line is described in the […] 2008, 54: 965-975. For rice, the cultivar Nipponbare was used. For maize, the cultivars DKC 2931 and B104 were used for regular pot experiments and sand-based pot experiments, respectively. For soybean, the cultivar Primus was used. […] The medium was solidified due to the addition of 0,6% Gelrite, unless stated otherwise. In case of vertical plates (root length and root hair measurements), the medium was supplied with 0.5% of sucrose and 1 µM (low phosphate, 1 µM KH2PO4, 9.9 mM KCI), 10 µM (low phosphate 10 µM KH2PO4, 9.9 mM KCI) or 1.25 mM KH2PO4 (high phosphate). Arabidopsis seeds were stratified for 2 days at 4 °C before germination. Seedlings were germinated in climate-controlled growth chambers at 22 °C under continuous light (100 µmol m^-2 s^-1). Husked rice seeds were germinated on wetted Whatman paper for 2 days at 37 °C and then transferred to Sterivent boxes or square Petri dishes with solid medium. Maize and soybean seeds were wetted 24 hours at room temperature prior to sowing in pots.
For the chemical activity assessment 3 to 8 seeds per well of Arabidopsis pSPX1::GUS line were sown in 96-well plates containing 150 µl of low phosphate modMS liquid medium containing 1% of sucrose. Compounds were added in 50 µM concentration, starting from a 5 mM stock of compounds solved in DMSO. Different chemical substances were separately added to different wells. Per plate, 16 control wells were used, 8 containing only the low phosphate medium and 1% DMSO, and 8 containing high phosphate medium and 1% DMSO. 7 days after germination, plates were scanned using a flatbed scanner (EPSON Expression 11000XL) and analyzed for leaf size. After scanning, the growth medium was replaced by GUS staining solution (see Plant Mol. Biol. Rep. 1994, 12: 37-42 for details) and incubated for 1.5 hours at 37 °C. The plates were scanned a second time and analyzed for GUS signal area. Measurements of both leaf area and GUS signal area were conducted by filtering out and measure the green and blue signal, respectively using ImageJ software. If the green leaf area was 50% or less than the control, samples were omitted. Additionally, all results were visually screened for leaf size and GUS signal.

Row | SMILES | GUS (SPX1) stained area normalized to the number of seeds (pixels)
1 | CCc1cc2c(=O)n(CC(=O)N3CCOC(C)C3)cnc2s1 (stereo not shown) | 0 pixels
2 | CC1CN(C(=O)Cn2nc(-c3cccs3)oc2=O)CCO1 (stereo not shown) | 0 pixels
3 | Cc1csc(C2CN(Cc3csc(C(C)(C)C)n3)CCO2)n1 (stereo not shown) | 1 pixels
4 | CC1CN(C(=O)CCc2nc(-c3ccsc3)no2)C(C)CO1 (stereo not shown) | 1 pixels
5 | C=CCn1c(SCc2cccc(S(=O)(=O)N3CCOCC3)c2)nc2ccccc21 | 1 pixels
6 | c1cc2c(cc1C1CCCN1c1nc(CN3CCOCC3)nc3sc4c(c13)CCC4)OCCO2 (stereo not shown) | 1 pixels
7 | COC(=O)C1CN(c2ccc(C(F)(F)F)cn2)C[C@@H](C)O1 (stereo partly shown) | 1 pixels
8 | c1ccc2sc(SN3CCOCC3)nc2c1 | 1 pixels
9 | CC(C)CCNC(=O)c1cc(S(=O)(=O)N2CCOCC2)cn1C | 1 pixels
10 | CC1CN(Cc2nc(-c3ccc(Br)s3)no2)CCO1 (stereo not shown) | 1 pixels
11 | C[C@@H](CO)NS(=O)(=O)c1ccc(S(=O)(=O)N2CCOCC2)cc1 | 1 pixels
12 | CC1CN(S(=O)(=O)CCNc2nc(-c3ccncc3)nc3ccccc23)CC(C)O1 (stereo not shown) | 1 pixels
13 | O=C(NCC(c1ccc(F)cc1)N1CCOCC1)C12CC3CC(CC(C3)C1)C2 (stereo not shown) | 1 pixels
14 | O=C(c1csc(-c2cccs2)n1)N1CCOC2CCCCC21 (stereo not shown) | 2 pixels
15 | CC1CN(Cc2csc(NC(=O)c3ccco3)n2)CC(C)O1 (stereo not shown) | 2 pixels
16 | CCCn1nc(C(=O)N2CC(C)OCC2C)ccc1=O (stereo not shown) | 2 pixels
17 | c1coc(CNc2nc(N3CCOCC3)nc3ccccc23)c1 | 2 pixels
18 | NC(=O)C1COCCN1c1cnc2cc(Cl)c(Cl)cc2n1 (stereo not shown) | 3 pixels
19 | O=C1Nc2ccccc2SC1Nc1ccc(F)c(S(=O)(=O)N2CCOCC2)c1 (stereo not shown) | 3 pixels
20 | CCC(CC)C(CNC(=O)Nc1ccccc1F)N1CCOCC1 (stereo not shown) | 37 pixels

Row | SMILES | GUS (SPX1) stained area normalized to the number of seeds (pixels)
21 | FC(F)(F)Cn1ccnc1CN1CCOC2(CCCC2)C1 | 38 pixels
22 | Cc1ccc(C(C)C)c(OCCNCCN2CCOCC2)c1 | 40 pixels
23 | O=C1CCCCCN1CCCNC(=O)N1CCOC2(CCCCCC2)C1 | 40 pixels
24 | COc1ccc(OC)c2c1CN(c1nc(CN3CCOCC3)nc3sc(C)c(C)c13)CC2O (stereo not shown) | 42 pixels
25 | CSc1nnc(CN2CC(c3ccccc3)OCC2(C)C)s1 (stereo not shown) | 43 pixels
26 | c1ccc2nc(N3CCOCC3)cnc2c1 | 43 pixels
27 | O=S(=O)(c1cccc(-c2nnc(SCc3ccccc3)o2)c1)N1CCOCC1 | 43 pixels
28 | Cc1cc(C)n(CC2CN(c3ncnc4ccsc34)CCO2)n1 (stereo not shown) | 44 pixels
29 | CCc1nsc(N2CCOC(C)C2)n1 (stereo not shown) | 44 pixels
30 | CC1(C)COCCN1C(=O)c1cnc(-c2cccs2)s1 | 45 pixels
31 | Cc1cnc(CN2CCOC(c3ccc(C(F)(F)F)cc3)C2)o1 (stereo not shown) | 46 pixels
32 | CC1CCCN(C(C)CNS(=O)(=O)N2CCOCC2)C1 (stereo not shown) | 46 pixels
33 | Cc1cnc(CN2CCOCC23CCCC3)o1 | 46 pixels
34 | CC1CN(C(=O)c2csc(-c3ccsc3)n2)C(C)CO1 (stereo not shown) | 46 pixels
35 | CC1COCCN1Cn1nc(Br)nc1Br (stereo not shown) | 47 pixels
36 | CCC1CN(Cc2cc(=O)n3cc(Cl)ccc3n2)CCO1 (stereo not shown) | 47 pixels
37 | CCCc1csc(NC(=O)N2CCOC3(CCC3)C2)n1 | 49 pixels
38 | c1ccc2sc(CN3CCOC(c4nccs4)C3)nc2c1 (stereo not shown) | 49 pixels
39 | Cc1nnc(CN2CCOCC2c2cccn2C)o1 (stereo not shown) | 50 pixels
40 | CC1CN(C(=O)C2(c3ccc(F)cc3)CC2)CC1N1CCOCC1 (stereo not shown) | 53 pixels

Row | SMILES | GUS (SPX1) stained area normalized to the number of seeds (pixels)
41 | COc1cccc(C(c2c(-c3ccccc3)n(O)c3ccccc23)N2CCOCC2)c1 (stereo not shown) | 54 pixels
42 | CC1CN(c2ccc([N+](=O)[O-])nc2)CC(c2ccsc2)O1 (stereo not shown) | 55 pixels
43 | CC1CN(S(=O)(=O)N(CC2CCOC2)C2CC2)CC(C)O1 (stereo not shown) | 60 pixels
44 | CCC1CN(C(=O)C(C)OCC2CC2)CC1N1CCOCC1 (stereo not shown) | 62 pixels
45 | CN1CCOC(C(=O)N2CCN(CC3CC3)c3ccccc32)C1 (stereo not shown) | 64 pixels
46 | CC(CNC(=O)N1CCCCC1c1cccn1C)CN1CCOCC1 (stereo not shown) | 65 pixels
47 | C#CCNC(=O)CN1CCOC(CC)C1 (stereo not shown) | 66 pixels
48 | CCCCS(=O)(=O)N1CCOCC1c1noc(C(C)C)n1 (stereo not shown) | 73 pixels
49 | CC(NC(=O)N1CCOC(CO)C1)c1ccc(Br)cc1 (stereo not shown) | 129 pixels
50 | CCc1ccc(C(C)NCC2(N3CCOCC3)CCSC2)o1 (stereo not shown) | 151 pixels
51 | O=C(C1CSCN1C(=O)CC1=CCCCC1)N1CCOCC1 (stereo not shown) | 162 pixels
52 | CCN1CCOC(CNCc2ccc(-n3cncn3)cc2)C1 (stereo not shown) | 301 pixels
53 | CN(C)c1nc(CN2CCOCC2CC(=O)c2ccco2)ns1 (stereo not shown) | 330 pixels
54 | NC(=O)C1CN(C(=O)C2(c3cccc(C(F)(F)F)c3)CC2)CCO1 (stereo not shown) | 349 pixels
55 | CCc1ncncc1C(=O)NCCN1CC(C)OC(C)C1 (stereo not shown) | 362 pixels
56 | CC1CN(C(C)c2nc(C3CC3)no2)CCO1 (stereo not shown) | 441 pixels
57 | CC(c1nnc(-c2cccs2)o1)N1CCOC(c2nccs2)C1 (stereo not shown) | 453 pixels
58 | Clc1cnccc1N1CCC(OCCN2CCOCC2)CC1 | 491 pixels
